The test system of the assay is ovariectomized Sprague-Dawley rats. Description: Morphine withdrawal rat hot flush model (naloxone-induced tail skin temperature rise). It counts as in vivo. The note with it: for morphine withdrawal hot flush model responsive to agent: data not shown. An excerpt: Simpkins et al. ((1983) Life Sci. 32:1957-1966) first published morphine withdrawal in the rat as a putative model for hot flushes, based on observations highlighting the similarity of symptoms of gonadal steroid withdrawal to those of opioid withdrawal. Although less severe, the signs and symptoms associated with clinical hot flushes, or estrogen deficiency, in the rat parallel those produced by naloxone-precipitated withdrawal in morphine dependent rats, including: 1) an increase in tail skin temperature; 2) a surge in luteinizing hormone; and 3) an increase in heart rate. Each of these responses is associated with an increase in sympathetic outflow, which is a current mechanistic hypothesis for hot flushes.
In this example, a modification of the original procedure of Simpkins et al. (1983) is used, employing ovariectomized Sprague-Dawley rats. Animals at 60 days of age (or 200-225 grams) are ovariectomized, and allowed a 14-day rest period to insure surgical recovery and clearance of endogenous ovarian hormones. Test compound administration (po or sc) is initiated on day 14 post-ovariectomy in a volume of 1 ml/kg. Once daily administration of test compounds continues through the end of the experiment. On days 15 and 17 post-ovariectomy, the rats are lightly anesthetized with isoflurane and a single 75 mg morphine (free base) pellet is surgically implanted subcutaneously.
On day 21 post-ovariectomy, animals are given ketamine (80 mg/kg; IM) 2 hours after final administration of the test compound. Following induction of the anesthesia, rats are then placed in individual plexiglass cages and temperature sensitive probes are applied to the dorsal side of the tail base. Temperature monitoring is initiated 30 minutes after administration of ketamine, and is recorded every 15 seconds for a 1-hr period. To induce morphine withdrawal, 1 mg/kg naloxone is given subcutaneously 15 minutes after start of temperature monitoring. A sharp rise in tail skin temperature typically occurs within 5 minutes post-naloxone injection, and two quantitative endpoints are made: 1) tail skin temperature at 15 minutes post-naloxone, and 2) area under the temperature response curve for the 45 minute post-naloxone measurement period.
Ethinyl estradiol is dosed orally at 0.3 mg/kg as a positive control. […] Using area under the curve measurements, the response induced by each compound is calculated as a percent inhibition of temperature increase versus the morphine control.

“And” between values parts separate entries of the source, which are not always exact repeats. Identical values can stand only once.

For the molecule `CCOc1ccccc1OC(c1ccccc1)C1CNCCO1` (racemic) [reboxetine], under “rat, in vivo, sc, 5 mg/kg”, the “% Inhibition vs. Morphine Control” value is given as 94%.
Same read-out and setting: then `CCOc1ccccc1OC(c1ccccc1)C1CNCCO1` [(R,S)-Reboxetine, (R,S)-reboxetine], with 94%.
As for `CNCCCN1c2ccccc2CCc2ccccc21` [Desipramine, desipramine], the “% Inhibition vs. Morphine Control” value runs as follows: (PO, 10 mg/kg, area under the tail skin temperature curve, 45 min post-naloxone) 101%; (PO, 10 mg/kg, area under the tail skin temperature curve, 45 min post-naloxone, listed as desipramine) 101%.
As for `C#C[C@]1(O)CC[C@H]2[C@@H]3CCc4cc(O)ccc4[C@H]3CC[C@@]21C` [Ethinyl Estradiol, Ethinyl estradiol], the “% Inhibition vs. Morphine Control” value reads like this: (PO, 0.3 mg/kg, area under the tail skin temperature curve, 45 min post-naloxone) 89% and 73% and 90%; (PO, 0.3 mg/kg, area under the tail skin temperature curve, 45 min post-naloxone, listed as Ethinyl estradiol) 70-90%.
Regarding `Clc1cccc(Cl)c1N=C1NCCN1` [clonidine], the “morphine withdrawal hot flush model responsive to agent” value is “responsive”.
Take `C#C[C@]1(O)CC[C@H]2[C@@H]3[C@H](C)CC4=C(CCC(=O)C4)[C@H]3CC[C@@]21C` [tibolone]: the “morphine withdrawal hot flush model responsive to agent” value was “responsive”.
Still for that read-out and setting: then medroxyprogesterone, with “responsive”.

The values are drawn from patent US20070015786A1, “Treatment of hot flashes, impulse control disorders and personality change due to a general medical condition” (Eli Lily and Company, priority 2003, published 2007).
